From EP4434515A1, “CBD FOR OCULAR USE” (Laboratoire Laredo S.L., priority 2023, dated 2024)
Like-named read-outs stand apart in the source and are kept apart here.

Assays:
[1] = CBD release from micelles through the HA hydrogel into simulated tear fluid, HPLC; assay type: physicochemical; conditions: after 12 h, simulated tear fluid as receiving medium
Description: Next, an assay of CBD release from micelles through the HA hydrogel was carried out for 24 hours (the time that the gel will be in contact with the eye), using STF (simulated tear fluid: NaCl (0.68 g), NaHCO3 (0.22 g), CaCl2·2H2O (0.008 g), KCI (0.14 g), and type II water to a total volume of 100 ml, filtered through a 0.2 µm pore size filter) as the receiving medium in order to recapitulate as much as possible release in tears, and taking samples at 1, 3, 5 8, 12 and 24 h. High-Performance Liquid Chromatography (HPLC) was the analytical technique that allowed the separation, identification (by comparison with standard patterns) and quantification, using a reverse phase and mobile phase under certain conditions; a mixture of methanol and water (85:15). The other conditions are as follows; flow rate of 1.0 ml/min, injection volume 10 µl and wavelength at 220 nm. Under the conditions mentioned above, a good determination of the CBD can be carried out.

[2] = Body weight and welfare (actual severity of the procedure); assay type: in vivo, mice
Description: In order to assess the actual severity of the treatment at the end of the procedure, the rates of mortality and morbidity were also recorded. Additionally, body weight measurements were […] during the study, as body weight is considered to be a sign of welfare.
The values obtained are represented in Fig. 11. Additionally, the rate with regard to the value at month 7.8 (where CBD has not been administered yet) was calculated by one-way ANOVA followed by Dunnett's Multiple Comparisons test, a statistical test used to compare multiple treatment groups with a control group. Ia applicable when multiple treatment groups are present and it is desired it determine if any of them are statistically different from the control group, is often used when it is assumed that the variance is equal among all groups The results were over 10% decrease in body weight is normally considered as a severe effect of welfare, and such a level of decrease was not found in the present study for none of the mice.

[3] = system: DBA/2J mice; test: Intraocular pressure (IOP) by rebound tonometry in glaucoma model mice; assay type: in vivo
Description: The study of the effects of topical ophthalmic CBD administration in micelles was carried out with outbred CD-1 mice and inbred DBA/2J mice. Male JAXTM DBA/2J mice homozygous for null mutations in Tyrplb and GpnmbR150X (-/-) were purchased from Charles River Laboratories (France). CD-1® IGS male mice were obtained from the animal facilities of Universidad Rey Juan Carlos, using 51 mice in total for the study . All animals were 4 weeks-old at the beginning of the study. They were maintained in a temperature (23 ± 1 °C) and humidity (50-55%) controlled room, under a 12 h light/dark cycle (lights off between 19:00 and 07.00 h). Animals had free access to standard laboratory rat chow (Harlan Laboratories Inc.) and tap water. Trained investigators blind to drug treatment conducted all the behavioural assays in groups of two. Experiments were performed between 8:00 and 11:00 a.m. in conscious animals. All animal procedures were designed and conducted in accordance with a protocol approved by the Ethical Committee of Universidad Rey Juan Carlos and by the Autonomous Region of Madrid (PROEX 187.3/21) and followed the guidelines for the Care and Use of Laboratory Animals of the European Union Directive (2010/63/EU) and Spanish regulations (Law 32/2007, RD 53/2013 and order ECC/566/2015). A total of 51 male mice were utilised in this study, as explained in section 2.2 below. The number of animals used and their suffering were minimised
(§1) The research plan designed with the animal model is depicted in Fig. 3. It comprises three main phases: • An ageing phase, which includes an initial 3-month period of quarantine and acclimatisation and an additional 4.5-month period during which IOP (from month 3 until month 7,5), tear production (from month 5,5 until month 7,5) and tactile sensitivity (from month 4 to month 7,5) are monitored to obtain a baseline for such magnitudes. • A treatment phase, beginning when mice were 8 months old, where DBA/2J and CD-1 animals were randomly divided into two groups: treated and untreated. In this phase, treated mice receive CBD doses. The treatment phase comprises 3 periods: an acute period of 1 day, where, at time 0 of the phase, mice receive a CBD dose and are monitored for 24 hours; an initial chronic period of 18 days (days 2 to 19 of the treatment phase), where mice receive a daily CBD dose, and a second chronic period of other […] (days 21 to 37 of the treatment phase), where mice receive 2 daily CBD doses. From the end of the ageing phase to the end of the following phase, the wear-off phase, IOP, tear production and tactile sensitivity are monitored three times per week, following an alternative measuring system: on a same day, IOP was monitored in two groups, while tear production and tactile sensitivity were monitored in the other two groups, while, on the following measuring day, tear production and tactile sensitivity were monitored in the first two groups and IOP was monitored in the other two groups. • A wear-off phase, during which mice receive no treatment and IOP tear production and tactile sensitivity are monitored at 24, 48, 72 and 96 hours after the beginning of the phase, following the same alternative system of the treatment phase.
CBD was administered as part of a micellar solution prepared as described in Example 1. In particular, in each dose, 5 µl of the micellar solution (with 5 mM CBD) was administered to one eye of each mice, while the other eye remained untreated or received only the vehicle, type II water. Treatment was always applied to the right eye. A different group of animals was treated during two weeks with the vehicle to ensure that it had no effect on IOP, corneal mechanical sensitivity or spontaneous production of tear.
Measurements during the chronic treatment phase were always taken prior to daily administration. At each time point indicated in the chart of Fig. 3, rebound tonometry or von Frey test was performed in the same group of animals. […]

[4] = system: CB1 knockout mice; conditions: high dose, soya oil/water emulsion; cited from earlier work
[5] = system: CD-1 mice; test: Corneal mechanical sensitivity, von Frey test; assay type: in vivo; conditions: treated vs untreated
Text: as §1, with “phase. […]” for “phase.”
(§2) The study was carried out with the same DBA/2J animals used in the study of section 2.3, taking measures of tactile sensitivity in days different from those where IOP was measured, as scheduled in Fig. 3 and Table 3. […]
(§3) Corneal mechanical sensitivity was measured following the von Frey test. […]

[6] = system: DBA/2J mice; test: Corneal mechanical sensitivity, von Frey test; assay type: in vivo
Text: as §1, with “phase. […]” for “phase.”
as §2, §3

[7] = system: wildtype mice; conditions: high dose, soya oil/water emulsion; cited from earlier work
[8] = topical, cited from earlier work
[9] = system: CD-1 mice; test: Spontaneous production of tear, Schirmer test; assay type: in vivo; conditions: treated vs untreated
Text: (§4) The research plan designed with the animal model is depicted in Fig. 3. It comprises three main phases: • An ageing phase, which includes an initial 3-month period of quarantine and acclimatisation and an additional 4.5-month period during which IOP (from month 3 until month 7,5), tear production (from month 5,5 until month 7,5) and tactile sensitivity (from month 4 to month 7,5) are monitored to obtain a baseline for such magnitudes. • A treatment phase, beginning when mice were 8 months old, where DBA/2J and CD-1 animals were randomly divided into two groups: treated and untreated. In this phase, treated mice receive CBD doses. The treatment phase comprises 3 periods: an acute period of 1 day, where, at time 0 of the phase, mice receive a CBD dose and are monitored for 24 hours; an initial chronic period of 18 days (days 2 to 19 of the treatment phase), where mice receive a daily CBD dose, and a second chronic period of other 18 days (days 21 to 37 of the treatment phase), where mice receive 2 daily CBD doses. […]
(§5) Their analysis was carried out following the Von Schirmmer test, which consisted of an ophthalmologic examination used to measure tear production in the eyes by inserting a small special piece of absorbent paper in the corner of the eye to measure the amount of tears produced in a determined period of time. […] Then, the area of the wet test paper was measured (length x width).

[10] = system: DBA/2J mice; test: Spontaneous production of tear, Schirmer test; assay type: in vivo; conditions: treated vs untreated
Text: as §4, §5

[11] = Acute, hour 1 after single dose
[12] = Chronic, day 12, one daily dose
[13] = Chronic, day 16, one daily dose
[14] = Chronic, day 21, two daily doses
[15] = Chronic, day 26, two daily doses
[16] = Chronic, day 30, two daily doses
[17] = Chronic, day 35, two daily doses
[18] = one week after finishing the treatment

## C=C(C)[C@@H]1CCC(C)=C[C@H]1c1c(O)cc(CCCCC)cc1O [CBD, cannabidiol]
[1]
  CBD release: higher than 90%
[2]; ocular topical administration
  welfare: no severe affection of welfare
[2]; phase of repeated CBD administration, DBA/2J and CD-1 mice, larger in CD-1
  body weight decrease with regard to the weight before beginning the treatment: lower than 10%
[3]; [11]
  Δ[contra-(treated)-contra-(non-treated)]: +95%
  Δ[ipsi-(treated)-ipsi-(non-treated)]: +69%
[3]; Acute, hour 1 after single dose, treated ipsilateral eye, t0 = month 3.0
  IOP ratio tn/t0, ipsi- (treated): 180%
[3]; Acute, hour 1 after single dose, untreated contralateral eye, t0 = month 3.0
  IOP ratio tn/t0, contra- (treated): 192%
[3]; Chronic, day 3, one daily dose
  Δ[contra-(treated)-contra-(non-treated)]: +80%
  Δ[ipsi-(treated)-ipsi-(non-treated)]: +35%
[3]; Chronic, day 3, one daily dose, contralateral eye
  IOP ratio tn/t0, contra- (treated): 131%
[3]; Chronic, day 3, one daily dose, ipsilateral eye
  IOP ratio tn/t0, ipsi- (treated): 130%
[3]; Chronic, day 7, one daily dose
  Δ[contra-(treated)-contra-(non-treated)]: +49%
  Δ[ipsi-(treated)-ipsi-(non-treated)]: -35%
[3]; Chronic, day 7, one daily dose, contralateral eye
  IOP ratio tn/t0, contra- (treated): 119%
[3]; Chronic, day 7, one daily dose, ipsilateral eye
  IOP ratio tn/t0, ipsi- (treated): 101%
[3]; [12]
  Δ[contra-(treated)-contra-(non-treated)]: +30%
  Δ[ipsi-(treated)-ipsi-(non-treated)]: -89%
[3]; Chronic, day 12, one daily dose, contralateral eye
  IOP ratio tn/t0, contra- (treated): 128%
[3]; Chronic, day 12, one daily dose, ipsilateral eye
  IOP ratio tn/t0, ipsi- (treated): 104%
[3]; [13]
  Δ[contra-(treated)-contra-(non-treated)]: -85%
  Δ[ipsi-(treated)-ipsi-(non-treated)]: -174%
[3]; Chronic, day 16, one daily dose, contralateral eye
  IOP ratio tn/t0, contra- (treated): 117%
[3]; Chronic, day 16, one daily dose, ipsilateral eye
  IOP ratio tn/t0, ipsi- (treated): 77%
[3]; [14]
  Δ[contra-(treated)-contra-(non-treated)]: -60%
  Δ[ipsi-(treated)-ipsi-(non-treated)]: -81%
[3]; Chronic, day 21, two daily doses, contralateral eye
  IOP ratio tn/t0, contra- (treated): 100%
[3]; Chronic, day 21, two daily doses, ipsilateral eye
  IOP ratio tn/t0, ipsi- (treated): 90%
[3]; [15]
  Δ[contra-(treated)-contra-(non-treated)]: -137%
  Δ[ipsi-(treated)-ipsi-(non-treated)]: -79%
[3]; Chronic, day 26, two daily doses, contralateral eye
  IOP ratio tn/t0, contra- (treated): 97%
[3]; Chronic, day 26, two daily doses, ipsilateral eye
  IOP ratio tn/t0, ipsi- (treated): 95%
[3]; [16]
  Δ[contra-(treated)-contra-(non-treated)]: -119%
  Δ[ipsi-(treated)-ipsi-(non-treated)]: -159%
[3]; Chronic, day 30, two daily doses, contralateral eye
  IOP ratio tn/t0, contra- (treated): 113%
[3]; Chronic, day 30, two daily doses, ipsilateral eye
  IOP ratio tn/t0, ipsi- (treated): 68%
[3]; [17]
  Δ[contra-(treated)-contra-(non-treated)]: -88%
  Δ[ipsi-(treated)-ipsi-(non-treated)]: -82%
[3]; Chronic, day 35, two daily doses, contralateral eye
  IOP ratio tn/t0, contra- (treated): 96%
[3]; Chronic, day 35, two daily doses, ipsilateral eye
  IOP ratio tn/t0, ipsi- (treated): 81%
[3]; Wear-off, day 38, no treatment
  Δ[contra-(treated)-contra-(non-treated)]: -44%
  Δ[ipsi-(treated)-ipsi-(non-treated)]: -78%
[3]; Wear-off, day 38, no treatment, contralateral eye
  IOP ratio tn/t0, contra- (treated): 64%
[3]; Wear-off, day 38, no treatment, ipsilateral eye
  IOP ratio tn/t0, ipsi- (treated): 81%
[3]; Wear-off, day 40, no treatment
  Δ[contra-(treated)-contra-(non-treated)]: -34%
  Δ[ipsi-(treated)-ipsi-(non-treated)]: -70%
[3]; Wear-off, day 40, no treatment, contralateral eye
  IOP ratio tn/t0, contra- (treated): 171%
[3]; Wear-off, day 40, no treatment, ipsilateral eye
  IOP ratio tn/t0, ipsi- (treated): 165%
[3]; acute administration (one dose)
  IOP relative to the untreated group: increased IOP
[3]; after giving two doses (daily)
  IOP difference relative to the untreated group: -80%
[3]; [18]
  IOP compared with the untreated group: still reduced
[3]; repeated administration, 7 days on
  IOP relative to the untreated group, late phase: decreased values
[4]
  effect on IOP: decreases IOP
[5]
  corneal mechanical sensitivity: no significant effect
[6]; acute administration
  corneal mechanical sensitivity relative to the untreated group: decreased mechanical sensitivity
[6]; [18]
  corneal mechanical sensitivity: still reduced
[7]
  effect on IOP: increases IOP
[8]; delivered in mineral oil
  effect on IOP: IOP-lowering effect
[8]; delivered in sesame oil
  effect on IOP: absent
[9]
  spontaneous production of tear: no significant effect
[10]
  spontaneous production of tear: no significant effect
